Several values for one entry are separate records, joined by “and”; a condition that tells them apart may be missing. Equal values may be shown once.
Test system: HEK293 cells
Assay: Endogenous ceramide, HexCer and SM levels in cells treated 24 h, targeted LC-MS/MS
Assay type: cell-based
Set-up: Cer 18:1/24:0 content in HEK293 cells / Cer 18:1/24:1 content in HEK293 cells / HexCer 18:1/16:0 content in HEK293 cells / HexCer 18:1/18:0 content in HEK293 cells / HexCer 18:1/20:0 content in HEK293 cells / HexCer 18:1/22:0 content in HEK293 cells / Cer 18:1/16:0 content in HEK293 cells / Cer 18:1/18:0 content in HEK293 cells / Cer 18:1/20:0 content in HEK293 cells / Cer 18:1/22:0 content in HEK293 cells: unit not given here
Experimental: Lipids were then extracted using MTBE/methanol/water as described above.
HEK293 cell culture experiment: Levels of each lipid in P053-treated HEK293 cells were normalised to the mean of the vehicle control group, and each concentration was compared to the control using ANOVA with Dunnett’s post-test. P values were adjusted for multiple comparisons in GraphPad PRISM.
Supplementary Figure 1. Ceramide, SM, and HexCer levels in HEK293 cells treated with
P053. Absolute lipid levels were determined by targeted LC-MS/MS, relative to external
standard curves. Results are mean ± SEM (n = 4) from one of two identical experiments.
Statistically significant results, based on two independent experiments, are as indicated in
Figure 2b-d. Raw data for these figures is provided in Supplementary Data File 1.

[1] = HEK293 cells, 24 h, P053 300 nM
[2] = P053 10 nM, replicates, raw data Suppl Fig 1

C[C@@](N)(CO)CCc1ccc(OCc2ccc(Cl)c(Cl)c2)cc1 [P053, (S)-2-amino-4-(4-(3,4-dichlorobenzyloxy)phenyl)-2-methylbutan-1-ol]
16:0 SM level [1]: 91.5762 percentage of the vehicle control group and 97.3304 percentage of the vehicle control group and 95.7086 percentage of the vehicle control group and 90.4865 percentage of the vehicle control group and 94.7045 percentage of the vehicle control group and 94.6107 percentage of the vehicle control group and 97.4329 percentage of the vehicle control group
16:1 SM level [1]: 95.4131 percentage of the vehicle control group and 93.1931 percentage of the vehicle control group and 97.1412 percentage of the vehicle control group and 89.2518 percentage of the vehicle control group and 106.305 percentage of the vehicle control group and 110.099 percentage of the vehicle control group and 114.576 percentage of the vehicle control group
18:0 Cer level [1]: 21.4642 percentage of the vehicle control group and 24.1123 percentage of the vehicle control group and 20.5881 percentage of the vehicle control group and 19.7155 percentage of the vehicle control group and 31.2852 percentage of the vehicle control group and 28.1026 percentage of the vehicle control group and 22.7669 percentage of the vehicle control group
18:0 HexCer level [1]: 20.413 percentage of the vehicle control group and 33.7976 percentage of the vehicle control group and 27.9895 percentage of the vehicle control group and 24.1749 percentage of the vehicle control group and 31.4424 percentage of the vehicle control group and 25.6474 percentage of the vehicle control group and 28.2273 percentage of the vehicle control group
18:0 SM level [1]: 51.9053 percentage of the vehicle control group and 55.6537 percentage of the vehicle control group and 52.9265 percentage of the vehicle control group and 58.2406 percentage of the vehicle control group and 58.0965 percentage of the vehicle control group and 68.5828 percentage of the vehicle control group
18:1 SM level [1]: 49.0849 percentage of the vehicle control group and 55.9252 percentage of the vehicle control group and 57.6407 percentage of the vehicle control group and 49.9379 percentage of the vehicle control group and 59.4579 percentage of the vehicle control group and 65.5511 percentage of the vehicle control group and 62.889 percentage of the vehicle control group
20:0 Cer level [1]: 93.6887 percentage of the vehicle control group and 101.721 percentage of the vehicle control group and 118.09 percentage of the vehicle control group and 85.7665 percentage of the vehicle control group and 100.615 percentage of the vehicle control group and 64.6288 percentage of the vehicle control group and 92.3762 percentage of the vehicle control group
20:0 SM level [1]: 118.407 percentage of the vehicle control group and 108.075 percentage of the vehicle control group and 104.904 percentage of the vehicle control group and 101.736 percentage of the vehicle control group and 91.4298 percentage of the vehicle control group and 108.941 percentage of the vehicle control group and 75.5566 percentage of the vehicle control group
22:0 Cer level [1]: 118.325 percentage of the vehicle control group and 95.8434 percentage of the vehicle control group and 96.1691 percentage of the vehicle control group and 93.2377 percentage of the vehicle control group and 117.011 percentage of the vehicle control group and 126.355 percentage of the vehicle control group and 127.853 percentage of the vehicle control group
22:0 HexCer level [1]: 109.712 percentage of the vehicle control group and 101.896 percentage of the vehicle control group and 93.6786 percentage of the vehicle control group and 100.98 percentage of the vehicle control group and 134.335 percentage of the vehicle control group and 123.952 percentage of the vehicle control group and 138.922 percentage of the vehicle control group
22:0 SM level [1]: 115.888 percentage of the vehicle control group and 97.5579 percentage of the vehicle control group and 89.8927 percentage of the vehicle control group and 119.666 percentage of the vehicle control group and 127.143 percentage of the vehicle control group and 125.883 percentage of the vehicle control group and 147.638 percentage of the vehicle control group
22:1 SM level [1]: 108.27 percentage of the vehicle control group and 122.085 percentage of the vehicle control group and 110.7 percentage of the vehicle control group and 101.001 percentage of the vehicle control group and 122.515 percentage of the vehicle control group and 112.931 percentage of the vehicle control group and 116.965 percentage of the vehicle control group
24:0 HexCer level [1]: 104.713 percentage of the vehicle control group and 95.2413 percentage of the vehicle control group and 95.3365 percentage of the vehicle control group and 92.7673 percentage of the vehicle control group and 114.448 percentage of the vehicle control group and 102.627 percentage of the vehicle control group and 132.114 percentage of the vehicle control group
24:0 SM level [1]: 113.274 percentage of the vehicle control group and 99.4416 percentage of the vehicle control group and 98.6316 percentage of the vehicle control group and 91.5407 percentage of the vehicle control group and 114.934 percentage of the vehicle control group and 115.44 percentage of the vehicle control group and 155.315 percentage of the vehicle control group
24:1 Cer level [1]: 111.319 percentage of the vehicle control group and 96.194 percentage of the vehicle control group and 99.387 percentage of the vehicle control group and 100.62 percentage of the vehicle control group and 125.506 percentage of the vehicle control group and 116.048 percentage of the vehicle control group and 122.55 percentage of the vehicle control group
24:1 HexCer level [1]: 99.7739 percentage of the vehicle control group and 98.9226 percentage of the vehicle control group and 100.626 percentage of the vehicle control group and 98.0727 percentage of the vehicle control group and 98.7766 percentage of the vehicle control group and 107.494 percentage of the vehicle control group and 117.137 percentage of the vehicle control group
24:1 SM level [1]: 105.1 percentage of the vehicle control group and 102.826 percentage of the vehicle control group and 108.435 percentage of the vehicle control group and 97.4023 percentage of the vehicle control group and 115.741 percentage of the vehicle control group and 108.576 percentage of the vehicle control group and 128.227 percentage of the vehicle control group
Cer 18:1/16:0 content in HEK293 cells [2]: 22.4895 and 20.1065 and 20.2227 and 20.5646
Cer 18:1/18:0 content in HEK293 cells [2]: 6.1592 and 6.073 and 6.699 and 5.451
Cer 18:1/20:0 content in HEK293 cells [2]: 0.6713 and 0.9209 and 0.7221 and 0.8599
Cer 18:1/22:0 content in HEK293 cells [2]: 56.12 and 63.3729 and 65.2079 and 63.3152

Reference: article PMC6104039 (Nature Communications, 2018)
